The text below walks through data of patent US12227488B2, “Small molecule degraders of Helios and methods of use” (DANA-FARBER CANCER INSTITUTE, INC., priority 2018, dated 2025).

In assay [1] the test system is IKZF2. Nature of the assay: Cellular degradation assay, eGFP-IKZF2Δ fusion with mCherry reporter in Flp-In 293 cells. The class given is cell-based. The note with it: for IKZF2 GFP/RFP Relative Abundance: 5 h incubation, n=1; for DC50: half degradation at 5 h (DC50,5 h), triplicate, 11 point dose response. How it is done:
(§1) IKZF1Δ, IKZF2Δ, GSPT1 and SALL4 ZnF1-2 were subcloned into mammalian pcDNA5/FRT Vector (Ampicillin and Hygromycin B resistant) modified to contain MCS-eGFP-P2A-mCherry. […] Following 2-3 passage cycle, FACS (FACSAria™ II, BD) was used to enrich for cells expressing eGFP and mCherry. Cells stably expressing the IKZF1Δ, IKZF2Δ, GSPT1 or SALL4 Znf1-2 GFP fusions with mCherry reporter were seeded at 30-50% confluency in 384-well plates with 50 μL FluoroBrite™ DMEM media (Thermo Fisher Scientific, A18967) containing 10% FBS per well a day before compound treatment. Compound titrations were dispensed using a D300e Digital Dispenser (HP), normalized to 0.5% DMSO, and incubated with cells for 5 hours.
(§2) The resulting images were analyzed using CellProfiler™. A series of image analysis steps (‘image analysis pipeline’) was constructed. First, the red and green channels were aligned and cropped to target the middle of each well (to avoid analysis of heavily clumped cells at the edges), and a background illumination function was calculated for both red and green channels of each well individually and subtracted to correct for illumination variations across the 384-well plate from various sources of error. An additional step was then applied to the green channel to suppress the analysis of large auto fluorescent artifacts and enhance the analysis of cell specific fluorescence by way of selecting for objects under a given size, 30 A.U., and with a given shape, speckles. mCherry-positive cells were then identified in the red channel filtering for objects between 8-60 pixels in diameter and using intensity to distinguish between clumped objects. The green channel was then segmented into GFP positive and negative areas and objects were labeled as GFP positive if at least 40% of it overlapped with a GFP positive area. The fraction of GFP-positive cells/mCherry-positive cells in each well was then calculated, and the green and red images were rescaled for visualization.
(§3) The degradation assay was performed as described above. […] Degradation was measured after 5 h of compound treatment and the concentrations that lead to half degradation at 5 h (DC50,5 h) were calculated using the nonlinear fit variable slope model (GraphPad Software).

Assay [2] deals with GSPT1 (Homo sapiens, UniProt P15170+Q96SW2). The assay is described as follows: Cellular degradation assay, eGFP-GSPT1 fusion with mCherry reporter in Flp-In 293 cells. The class given is cell-based. The arrangement: expressed in transfected cells; host or cells: Flp-In 293. The note with it: for GSPT1 GFP/RFP Relative Abundance: 5 h incubation, n=1; for DC50: half degradation at 5 h (DC50,5 h), triplicate, 11 point dose response. How it is done: as §1, §2, §3

In assay [3] the target is T1, CRBN and Helios (IKZF2) (Homo sapiens, UniProt Q96SW2+Q9UKS7).
T1 construct: His (N); Strep (N)
The assay is described as follows: TR-FRET dimerization assay (CRBN-IKZF2 ternary complex formation). The class given is binding. Conditions: n=1. How it is done: A focused library of imide analogs was synthesized and assessed for their ability to induce dimerization between CRBN and Helios in a time-resolved fluorescence energy transfer (TR-FRET) assay (FIG. 1A).
Prior to TR-FRET measurements being conducted, the reactions were incubated for 15 min at rt. […] The TR-FRET signal of each data point was extracted by calculating the 520/490 nm ratios. Data from single measurements (n=1), each calculated as an average of at least three technical replicates per well per experiment are presented in Table 1.
BODIPY-labeled CRBN in complex with Damage Specific DNA Binding Protein 1 (DDB1) harboring an internal deletion of the flexible BPB propeller (DDB1AB-CRBN) and in vitro biotinylated IKZF2 were treated with increasing concentrations of the indicated compounds in the presence of tracer amounts of Terbium-Streptavidin (Tb-SA). Compound-induced recruitment of IKZF2 to CRBN was quantified following the 520/490 TR-FRET ratio using a PHERAstar® plate reader (BMG) utilizing two synchronized PMTs to reduce background.
A general note: Time-resolved FRET reads energy transfer from a long-lived donor to a nearby acceptor.

The target of assay [4] is T2, IKZF1 (Homo sapiens, UniProt Q13422).
T2 construct: expressed in transfected cells; host or cells: Flp-In 293
Nature of the assay: Cellular degradation assay, eGFP-IKZF1Δ fusion with mCherry reporter in Flp-In 293 cells. Type of assay: cell-based. The note with it: for IKZF1 GFP/RFP Relative Abundance: 5 h incubation, n=1; for potency of IKZF1 degradation, in words: Table 3 summary; for DC50: half degradation at 5 h (DC50,5 h), triplicate, 11 point dose response. How it is done: as §1, §2, §3

The mark [5] stands for this setting: compound concentration 2.00E−05.
Where [6] appears, read: compound concentration 2.00E−06.
Setting [7] is: compound concentration 2.00E−07.
[8] abbreviates: compound concentration 6.6667E−05.
Setting [9] is: compound concentration 6.6667E−06.
The mark [10] stands for this setting: compound concentration 6.6667E−07 (667 nM).

Chain of GSPT1 (P15170 whole entry, the tested form may be a part): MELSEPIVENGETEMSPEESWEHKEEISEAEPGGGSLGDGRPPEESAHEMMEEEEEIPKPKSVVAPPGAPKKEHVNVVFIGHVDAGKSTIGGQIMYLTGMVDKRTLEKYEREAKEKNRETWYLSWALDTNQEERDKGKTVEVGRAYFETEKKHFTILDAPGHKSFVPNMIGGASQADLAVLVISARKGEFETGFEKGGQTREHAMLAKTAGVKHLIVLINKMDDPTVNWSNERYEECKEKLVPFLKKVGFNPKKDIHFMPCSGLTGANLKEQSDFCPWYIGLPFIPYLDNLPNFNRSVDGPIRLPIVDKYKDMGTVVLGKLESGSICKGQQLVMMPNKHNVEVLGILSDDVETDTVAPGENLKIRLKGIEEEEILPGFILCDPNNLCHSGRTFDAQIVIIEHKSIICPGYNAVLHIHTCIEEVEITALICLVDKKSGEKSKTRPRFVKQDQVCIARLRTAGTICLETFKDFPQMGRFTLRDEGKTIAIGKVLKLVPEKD
Chain of GSPT1 (Q96SW2 whole entry, the tested form may be a part): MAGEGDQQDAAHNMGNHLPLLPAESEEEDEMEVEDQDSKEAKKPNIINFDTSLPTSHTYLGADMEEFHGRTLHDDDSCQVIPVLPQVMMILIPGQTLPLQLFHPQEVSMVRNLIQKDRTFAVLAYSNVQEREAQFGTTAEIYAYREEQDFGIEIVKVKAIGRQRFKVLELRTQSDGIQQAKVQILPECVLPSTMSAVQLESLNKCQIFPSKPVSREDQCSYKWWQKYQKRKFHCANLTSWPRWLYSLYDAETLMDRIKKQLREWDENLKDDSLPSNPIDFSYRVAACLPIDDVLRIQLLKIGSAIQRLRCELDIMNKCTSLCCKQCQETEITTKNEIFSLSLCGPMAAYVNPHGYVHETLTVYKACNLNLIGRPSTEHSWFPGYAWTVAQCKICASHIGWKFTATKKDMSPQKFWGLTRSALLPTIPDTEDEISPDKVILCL
Chain of GSPT1 (Q16531 whole entry partner, the tested form may be a part): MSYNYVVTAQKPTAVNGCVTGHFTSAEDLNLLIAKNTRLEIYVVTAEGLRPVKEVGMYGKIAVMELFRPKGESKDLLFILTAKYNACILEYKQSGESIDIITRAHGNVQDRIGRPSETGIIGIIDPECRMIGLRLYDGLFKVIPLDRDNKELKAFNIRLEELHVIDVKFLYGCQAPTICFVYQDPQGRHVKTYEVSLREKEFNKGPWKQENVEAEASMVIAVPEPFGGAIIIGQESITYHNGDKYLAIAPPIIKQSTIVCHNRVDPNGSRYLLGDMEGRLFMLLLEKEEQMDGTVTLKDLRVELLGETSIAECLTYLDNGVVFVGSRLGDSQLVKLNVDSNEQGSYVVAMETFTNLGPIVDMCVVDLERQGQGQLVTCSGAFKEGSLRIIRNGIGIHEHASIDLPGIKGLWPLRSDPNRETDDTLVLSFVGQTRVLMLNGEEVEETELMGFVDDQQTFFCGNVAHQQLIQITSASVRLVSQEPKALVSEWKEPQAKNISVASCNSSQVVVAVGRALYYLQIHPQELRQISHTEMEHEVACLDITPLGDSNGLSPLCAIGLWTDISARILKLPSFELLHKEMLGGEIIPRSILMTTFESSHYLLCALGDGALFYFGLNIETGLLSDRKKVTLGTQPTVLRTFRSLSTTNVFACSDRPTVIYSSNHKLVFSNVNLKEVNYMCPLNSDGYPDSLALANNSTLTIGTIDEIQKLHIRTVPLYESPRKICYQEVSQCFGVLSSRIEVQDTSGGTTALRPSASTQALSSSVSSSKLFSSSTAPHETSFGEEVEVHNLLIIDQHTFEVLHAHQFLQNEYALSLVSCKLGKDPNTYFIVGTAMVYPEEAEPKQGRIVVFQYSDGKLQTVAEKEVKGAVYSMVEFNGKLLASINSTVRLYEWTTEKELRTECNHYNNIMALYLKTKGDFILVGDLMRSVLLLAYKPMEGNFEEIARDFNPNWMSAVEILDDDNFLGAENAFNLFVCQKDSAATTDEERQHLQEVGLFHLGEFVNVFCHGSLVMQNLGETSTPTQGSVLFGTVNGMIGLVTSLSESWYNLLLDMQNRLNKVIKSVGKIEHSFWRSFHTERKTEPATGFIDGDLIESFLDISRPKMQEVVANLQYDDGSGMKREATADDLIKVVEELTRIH
T1 sequence (Q96SW2 whole entry): as the sequence (Q96SW2 whole entry, the tested form may be a part) above
T1 sequence (Q9UKS7 whole entry): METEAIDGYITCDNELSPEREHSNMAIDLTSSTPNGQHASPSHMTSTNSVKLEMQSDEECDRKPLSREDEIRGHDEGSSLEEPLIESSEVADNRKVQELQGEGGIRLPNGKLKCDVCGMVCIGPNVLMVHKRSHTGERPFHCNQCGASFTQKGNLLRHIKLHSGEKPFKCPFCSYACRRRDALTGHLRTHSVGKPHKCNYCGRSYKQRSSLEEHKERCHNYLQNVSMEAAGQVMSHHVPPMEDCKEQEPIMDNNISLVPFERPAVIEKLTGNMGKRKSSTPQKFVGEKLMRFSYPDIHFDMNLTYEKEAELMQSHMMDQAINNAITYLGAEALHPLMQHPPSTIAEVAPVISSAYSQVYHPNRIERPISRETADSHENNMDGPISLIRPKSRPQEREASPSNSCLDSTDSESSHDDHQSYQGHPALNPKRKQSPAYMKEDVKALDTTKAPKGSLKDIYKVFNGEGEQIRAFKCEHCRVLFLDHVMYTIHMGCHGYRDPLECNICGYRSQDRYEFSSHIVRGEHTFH
T2 sequence (Q13422 83-213 isoform Q13422-7 limits assumed): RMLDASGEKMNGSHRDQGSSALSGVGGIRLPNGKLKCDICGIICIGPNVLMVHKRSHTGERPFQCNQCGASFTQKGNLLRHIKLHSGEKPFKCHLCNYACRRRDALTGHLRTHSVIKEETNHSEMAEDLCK
T2 sequence (Q96SW2 whole entry partner): as the sequence (Q96SW2 whole entry, the tested form may be a part) above
T2 sequence (Q16531 2-1140 partner limits assumed): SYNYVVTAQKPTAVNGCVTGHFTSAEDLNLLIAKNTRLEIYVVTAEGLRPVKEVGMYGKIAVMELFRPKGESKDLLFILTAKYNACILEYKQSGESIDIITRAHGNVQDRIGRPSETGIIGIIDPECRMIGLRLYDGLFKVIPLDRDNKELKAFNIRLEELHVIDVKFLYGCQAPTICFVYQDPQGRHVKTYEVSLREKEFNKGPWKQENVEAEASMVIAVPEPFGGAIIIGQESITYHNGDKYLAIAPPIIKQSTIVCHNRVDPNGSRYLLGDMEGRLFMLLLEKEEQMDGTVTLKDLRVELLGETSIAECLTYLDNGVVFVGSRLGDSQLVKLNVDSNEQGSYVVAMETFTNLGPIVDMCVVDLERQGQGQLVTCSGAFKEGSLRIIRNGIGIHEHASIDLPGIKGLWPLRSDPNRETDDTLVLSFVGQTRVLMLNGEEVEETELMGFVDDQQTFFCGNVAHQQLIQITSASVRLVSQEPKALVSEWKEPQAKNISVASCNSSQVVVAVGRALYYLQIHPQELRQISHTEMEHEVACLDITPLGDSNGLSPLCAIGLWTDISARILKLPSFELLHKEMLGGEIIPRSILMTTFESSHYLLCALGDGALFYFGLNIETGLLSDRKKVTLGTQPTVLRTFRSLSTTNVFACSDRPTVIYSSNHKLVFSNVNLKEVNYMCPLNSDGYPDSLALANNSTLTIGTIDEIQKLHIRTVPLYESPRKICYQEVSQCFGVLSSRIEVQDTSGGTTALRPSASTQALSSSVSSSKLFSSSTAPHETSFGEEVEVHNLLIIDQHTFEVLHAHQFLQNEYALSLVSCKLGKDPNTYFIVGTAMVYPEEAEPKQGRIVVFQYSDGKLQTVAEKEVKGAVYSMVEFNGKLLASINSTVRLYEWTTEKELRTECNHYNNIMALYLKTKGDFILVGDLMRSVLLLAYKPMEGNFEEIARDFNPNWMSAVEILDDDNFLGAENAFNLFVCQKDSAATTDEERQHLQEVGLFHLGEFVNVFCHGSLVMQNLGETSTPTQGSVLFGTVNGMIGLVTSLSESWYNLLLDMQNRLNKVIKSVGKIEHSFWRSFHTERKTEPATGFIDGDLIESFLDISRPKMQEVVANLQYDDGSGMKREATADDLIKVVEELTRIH

On to `O=C1CCC(N2C(=O)C=C(Nc3cccc(CNC(=O)Nc4ccc(Cl)c(Cl)c4)c3)C2=O)C(=O)N1` (stereo not drawn) [Compound 59, 1-(3,4-dichlorophenyl)-3-(3-((1-(2,6-dioxopiperidin-3-yl)-2,5-dioxo-2,5-dihydro-1H-pyrrol-3-yl)amino)benzyl)urea], for which the “IKZF2 GFP/RFP Relative Abundance” value in assay [1] (setting [5]) came out at 0.099; in assay [1] (setting [6]) it was 0.072; in assay [1] (setting [7]) it was 0.108. The “GSPT1 GFP/RFP Relative Abundance” value is reported as 0.247 in assay [2] (setting [5]), 0.734 in assay [2] (setting [6]) and 0.952 in assay [2] (setting [7]). Further, the “TR-FRET-IKZF2 (Normalized to CC-885)” value in assay [3] (setting [8]) is given as 1.224; in assay [3] (setting [9]), 1.165; in assay [3] (setting [10]), 1.035. In addition, the “IKZF1 GFP/RFP Relative Abundance” value is 0.144 in assay [4] (setting [5]), 0.097 in assay [4] (setting [6]) and 0.066 in assay [4] (setting [7]).

As for `Cc1ccc(NC(=O)NCc2cccc(NC3=CC(=O)N(C4CCC(=O)NC4=O)C3=O)c2)cc1C` (stereo not drawn) [Compound 58, 1-(3,4-dimethylphenyl)-3-(3-((1-(2,6-dioxopiperidin-3-yl)-2,5-dioxo-2,5-dihydro-1H-pyrrol-3-yl)amino)benzyl)urea], the results for the “IKZF2 GFP/RFP Relative Abundance” value in assay [1] (setting [5]), in assay [1] (setting [6]) and in assay [1] (setting [7]) were 0.064, 0.077 and 0.122, respectively. Further, the “GSPT1 GFP/RFP Relative Abundance” value amounted to 0.421 in assay [2] (setting [5]), 0.603 in assay [2] (setting [6]) and 0.594 in assay [2] (setting [7]). Besides, the figures for the “TR-FRET-IKZF2 (Normalized to CC-885)” value in assay [3] (setting [8]), in assay [3] (setting [9]) and in assay [3] (setting [10]) were 1.184, 1.061 and 0.927, respectively. For the same molecule, the “IKZF1 GFP/RFP Relative Abundance” value is listed as 0.075 in assay [4] (setting [5]), 0.070 in assay [4] (setting [6]) and 0.074 in assay [4] (setting [7]).

For the molecule `Cc1ccc(NC(=O)c2cccc(NC3=CC(=O)N(C4CCC(=O)NC4=O)C3=O)c2)cc1Cl` (stereo not drawn) [Compound 49, N-(3-chloro-4-methylphenyl)-3-((1-(2,6-dioxopiperidin-3-yl)-2,5-dioxo-2,5-dihydro-1H-pyrrol-3-yl)amino)benzamide], the “IKZF2 GFP/RFP Relative Abundance” value in assay [1] (setting [5]) worked out at 0.665; in assay [1] (setting [6]) it was 0.612; in assay [1] (setting [7]) it was 0.830. Also, the DC50 (usually the concentration at which degradation of the target reaches its halfway point) was 7.2 nM in assay [1], above 1000 nM in assay [2] and 1.9 nM in assay [4]. For the same molecule, the results for the “GSPT1 GFP/RFP Relative Abundance” value in assay [2] (setting [5]), in assay [2] (setting [6]) and in assay [2] (setting [7]) were 0.125, 0.055 and 0.069, respectively. In addition, the entries for the “TR-FRET-IKZF2 (Normalized to CC-885)” value in assay [3] (setting [8]), in assay [3] (setting [9]) and in assay [3] (setting [10]) were 0.801, 0.690 and 0.472, respectively. The “potency of IKZF1 degradation, in words” value in assay [4] is “most potent against IKZF1”. The “IKZF1 GFP/RFP Relative Abundance” value in assay [4] (setting [5]) is recorded as 0.268; in assay [4] (setting [6]) it was 0.187; in assay [4] (setting [7]), 0.314.

Turning to `CC(NC(=O)Cc1cccc(C(F)(F)F)c1)c1cccc(NC2=CC(=O)N(C3CCC(=O)NC3=O)C2=O)c1` (stereo not drawn) [Compound 142, N-(1-(3-((1-(2,6-dioxopiperidin-3-yl)-2,5-dioxo-2,5-dihydro-1H-pyrrol-3-yl)amino)phenyl)ethyl)-2-(3-(trifluoromethyl)phenyl)acetamide], the half-maximal degradation concentration (DC50) in assay [1] is 16 nM; in assay [2], above 1000 nM; in assay [4], 16 nM.

Take `O=C1CCC(N2C(=O)C=C(Nc3cccc(CCC(=O)Nc4cccc(C(F)(F)F)c4)c3)C2=O)C(=O)N1` (stereo not drawn) [Compound 148, 3-(3-((1-(2,6-dioxopiperidin-3-yl)-2,5-dioxo-2,5-dihydro-1H-pyrrol-3-yl)amino)phenyl)-N-(3-(trifluoromethyl)phenyl)propanamide]: the half-maximal degradation concentration (DC50) in assay [1] is 13 nM; in assay [2] it was above 1000 nM; in assay [4], 3.2 nM.

As for `Cc1ccc(NC(=O)NCc2cccc(OC3=CC(=O)N(C4CCC(=O)NC4=O)C3=O)c2)cc1Cl` (stereo not drawn) [Compound 64, 1-(3-chloro-4-methylphenyl)-3-(3-((1-(2,6-dioxopiperidin-3-yl)-2,5-dioxo-2,5-dihydro-1H-pyrrol-3-yl)oxy)benzyl)urea], the entries for the “IKZF2 GFP/RFP Relative Abundance” value in assay [1] (setting [5]), in assay [1] (setting [6]) and in assay [1] (setting [7]) were 1.087, 1.038 and 1.061, respectively. The “TR-FRET-IKZF2 (Normalized to CC-885)” value in assay [3] (setting [8]) stood at 0.030; in assay [3] (setting [9]), 0.025; in assay [3] (setting [10]) it was 0.021. Further, the “IKZF1 GFP/RFP Relative Abundance” value worked out at 1.154 in assay [4] (setting [5]), 1.077 in assay [4] (setting [6]) and 1.122 in assay [4] (setting [7]).

Regarding `Cc1ccc(CNC(=O)c2cccc(NC3=CC(=O)N(C4CCC(=O)NC4=O)C3=O)c2)cc1Cl` (stereo not drawn) [Compound 122, N-(3-chloro-4-methylbenzyl)-3-((1-(2,6-dioxopiperidin-3-yl)-2,5-dioxo-2,5-dihydro-1H-pyrrol-3-yl)amino)benzamide], the results for the “IKZF2 GFP/RFP Relative Abundance” value in assay [1] (setting [5]), in assay [1] (setting [6]) and in assay [1] (setting [7]) were 0.738, 0.789 and 0.833, respectively. Besides, the entries for the “TR-FRET-IKZF2 (Normalized to CC-885)” value in assay [3] (setting [8]), in assay [3] (setting [9]) and in assay [3] (setting [10]) were 0.715, 0.628 and 0.469, respectively. The “IKZF1 GFP/RFP Relative Abundance” value is 0.076 in assay [4] (setting [5]), 0.088 in assay [4] (setting [6]) and 0.096 in assay [4] (setting [7]).

On to `Cc1ccc(CNC(=O)Cc2cccc(NC3=CC(=O)N(C4CCC(=O)NC4=O)C3=O)c2)cc1Cl` (stereo not drawn) [Compound 123, N-(3-chloro-4-methylbenzyl)-2-(3-((1-(2,6-dioxopiperidin-3-yl)-2,5-dioxo-2,5-dihydro-1H-pyrrol-3-yl)amino)phenyl)acetamide], for which the “IKZF2 GFP/RFP Relative Abundance” value in assay [1] (setting [5]) was found to be 0.065; in assay [1] (setting [6]), 0.093; in assay [1] (setting [7]), 0.078. The “TR-FRET-IKZF2 (Normalized to CC-885)” value amounted to 1.234 in assay [3] (setting [8]), 1.087 in assay [3] (setting [9]) and 0.960 in assay [3] (setting [10]). In addition, the “IKZF1 GFP/RFP Relative Abundance” value is given as 0.083 in assay [4] (setting [5]), 0.057 in assay [4] (setting [6]) and 0.092 in assay [4] (setting [7]).

Turning to `Cc1ccc(NC(=O)COc2cccc(NC3=CC(=O)N(C4CCC(=O)NC4=O)C3=O)c2)cc1Cl` (stereo not drawn) [Compound 125, N-(3-chloro-4-methylphenyl)-2-(3-((1-(2,6-dioxopiperidin-3-yl)-2,5-dioxo-2,5-dihydro-1H-pyrrol-3-yl)amino)phenoxy)acetamide], the 50% degradation concentration (DC50) in assay [1] was 24 nM; in assay [2] it was above 1000 nM; in assay [4] it was 1.7 nM. Further, the “potency of IKZF1 degradation, in words” value in assay [4] is listed as “most potent against IKZF1”.

For the molecule `CC(C)(NC(=O)Cc1cccc(C(F)(F)F)c1)c1cccc(NC2=CC(=O)N(C3CCC(=O)NC3=O)C2=O)c1` (stereo not drawn) [Compound 139, N-(2-(3-((1-(2,6-dioxopiperidin-3-yl)-2,5-dioxo-2,5-dihydro-1H-pyrrol-3-yl)amino)phenyl)propan-2-yl)-2-(3-(trifluoromethyl)phenyl)acetamide], the “degradation selectivity IKZF2/IKZF1” value in assay [1] (from DC50 values of Table 3) is 10 fold. The values for the DC50 in assay [1], in assay [2] and in assay [4] were 17 nM, above 1000 nM and 167 nM, respectively.
